The text below walks through data of patent publication US12371400B2, “Cathepsin inhibitors” (ACADEMISCH ZIEKENHUIS LEIDEN (H.O.D.N. LUMC), priority 2017, dated 2025).

A word on the IC50: it is the point on the concentration scale where inhibition reaches its midpoint.

Experiment [1] concerns the target T1, hCatK (Homo sapiens, UniProt P43235).
T1 sequence (P43235 115-329): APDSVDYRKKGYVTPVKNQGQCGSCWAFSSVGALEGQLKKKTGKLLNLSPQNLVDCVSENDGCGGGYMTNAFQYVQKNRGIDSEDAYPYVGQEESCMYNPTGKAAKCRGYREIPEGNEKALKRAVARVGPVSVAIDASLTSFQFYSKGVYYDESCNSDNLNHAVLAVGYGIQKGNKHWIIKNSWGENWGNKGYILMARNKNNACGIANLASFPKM
Put plainly: Jump dilution assay for reversibility of hCatK inhibition. As to conditions: 300× dilution into fluorogenic substrate solution. Type of experiment: biochemical. On the procedure:
FIG. 3 provides a schematic overview of a jump dilution assay. A) Dose response curve for a 300-fold dilution of inhibitor concentration from full inhibition to full activity. B) Protocol and concentrations for incubation and dilution. C) Progress curves for hCatK proteolytic activity with inhibitor compounds ODN, 4, 5, 6 after dilution.
Reversibility of protease inhibition by an inhibitor may be assessed in a jump dilution assay. An exemplary jump dilution assay is provided in R. A. Copeland, A. Basavapathruni, M. Moyer, M. P. Scott, Anal. Biochem. 2011, 416, 206. In a jump dilution assay the protease (e.g. CatK) is incubated with inhibitor at high concentration to allow full active site occupation, and subsequently diluted, e.g. 300×, into fluorogenic substrate solution resulting in an inhibitor concentration corresponding with full protease activity. The hydrolysis of fluorogenic substrate is monitored over an extended time period, e.g. at least 60 minutes. […] The assay results may be compared with the results using a known irreversible inhibitor of the protease as a control. E-64 represents an established pan-Cathepsin irreversible inhibitor, suitable for use as a positive control with most cysteine protease Cathepsins.
Reversibility of hCatK inhibition was assessed in a jump dilution assay. Established pan-Cathepsin inhibitor E-64 was taken along as a control for irreversible inhibition. Purified hCatK was incubated with inhibitors at high concentration to allow full active site occupation, and subsequently diluted 300× into fluorogenic substrate solution resulting in an inhibitor concentration corresponding with full activity (FIG. 3).

Experiment [2] concerns the target hCatB (Homo sapiens, UniProt P07858). Put plainly: In vitro inhibition of purified human Cathepsin B (Z-RR-AMC). The note with it: 30 min incubation with inhibitor, mean ± SD, triplicate. The class given is biochemical. The method, then: (§1) Cathepsin (e.g. Cathepsin K/L/V/S/B), in particular purified human Cathepsin, was diluted in freshly prepared reaction buffer consisting of 50 mM MES pH 5.5, 25 mM EDTA and 2.5 mM DTT. 0.05% Tween20 (v/v) may be added to the reaction buffer of the Cathepsin K.
(§2) Activity assays may be conducted in a suitable manner. […] Plates were shaken at 600 rpm for 1 minute and centrifuged at 1000 rpm for 1 minute prior to incubation. Cathepsin activity was quantified using synthetic fluorogenic peptide substrate Z-FR-AMC (Cath K, L, V), Z-RR-AMC (Cath B) or Z-FVR-AMC (Cath S). Fluorescence intensity (λex=350 nm, λem=440 nm) was measured every 2 minutes in arbitrary units (A.U.) on a CLARIOstar (BMG Labtech) microplate reader and values were converted to product formation [AMC]. […] Measurements were performed in triplicate.
(§3) Inhibitors (200 nL, 100× final concentration in DMSO) were diluted in reaction buffer (10 μL). Purified human Cathepsin (5 μL, 4× final concentration) was added and the reaction mixture was incubated for 30 min at room temperature. Fluorogenic substrate (5 μL, 4× final concentration) was added and fluorescence intensity was measured every 2 minutes for 30-90 minutes.
(§4) The potency of the compounds as CatK inhibitors was assessed in an in vitro inhibition assay on purified human CatK (Table 2). Cathepsin was incubated with inhibitor, and the hydrolysis of substrate was initiated by addition of substrate.

Experiment [3] concerns the target hCatS (Homo sapiens, UniProt P25774). The experiment can be described thus: In vitro inhibition of purified human Cathepsin S (Z-FVR-AMC). The class given is biochemical. As to conditions: 30 min incubation with inhibitor, mean ± SD, triplicate. On the procedure:
as §1
(§5) Activity assays may be conducted in a suitable manner. In the experiments described herein, the assays were typically conducted in Corning 3820 Low Volume 384 Well Assay Plate with a final assay volume of 20 μL. Plates were shaken at 600 rpm for 1 minute and centrifuged at 1000 rpm for 1 minute prior to incubation. Cathepsin activity was quantified using synthetic fluorogenic peptide substrate Z-FR-AMC (Cath K, L, V), Z-RR-AMC (Cath B) or Z-FVR-AMC (Cath S). Fluorescence intensity (λex=350 nm, λem=440 nm) was measured every 2 minutes in arbitrary units (A.U.) on a CLARIOstar (BMG Labtech) microplate reader and values were converted to product formation [AMC]. […] Measurements were performed in triplicate.
as §3, §4

The target in experiment [4] is T1, hCatK. Put plainly: In vitro inhibition of purified human Cathepsin K (fluorogenic substrate Z-FR-AMC). Type of experiment: biochemical. The note with it: for selectivity for CatK over structurally related human Cathepsins: in words, from Table 2; for IC50: purified human Cathepsin, 30 min incubation with inhibitor, mean ± SD, triplicate. On the procedure:
as §1, §5, §3, §4

The target of experiment [5] is hCatL (Homo sapiens, UniProt P07711). Put plainly: In vitro inhibition of purified human Cathepsin L (Z-FR-AMC). The class given is biochemical. As to conditions: 30 min incubation with inhibitor, mean ± SD, triplicate. On the procedure: as §1, §2, §3, §4
Sequence of hCatL (P07711 114-333): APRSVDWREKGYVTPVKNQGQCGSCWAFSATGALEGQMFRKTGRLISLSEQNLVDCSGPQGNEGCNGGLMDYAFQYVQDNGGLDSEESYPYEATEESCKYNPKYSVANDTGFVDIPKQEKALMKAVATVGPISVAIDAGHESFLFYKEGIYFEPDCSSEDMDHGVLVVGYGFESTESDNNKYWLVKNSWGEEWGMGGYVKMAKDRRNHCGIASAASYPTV
The target in experiment [6] is T2, Cathepsin K (Homo sapiens, UniProt P43235).
T2 sequence (P43235 115-329): T1 sequence (P43235 115-329)
The experiment can be described thus: LC-MS of intact CatK and CatK-inhibitor complexes. Type of experiment: binding. The note with it: for formation of covalent CatK-inhibitor complex: 6 h incubation, intact protein LC-MS; for Measured mass complex: CatK 3 μM, inhibitor 100 μM, 37° C., 6 h, deconvoluted ESI mass. On the procedure: The masses were determined from deconvoluted electrospray ionization mass spectra of CatK complexes. FIG. 4A to FIG. 4E each provide the result for a sample. In each of these FIGS. 4A to 4E the first panel provides the UPLC chromatogram, the second panel provides the electrospray ionization mass spectrum, and the third panel provides the corresponding deconvoluted electrospray ionization mass spectrum (average isotopes) with an indication of the measured mass of the predominant species. FIG. 4A provides the results obtained for intact CatK. FIG. 4B provides the results obtained for CatK.
Cathepsin K (3 μM) in reaction buffer ([…]) was incubated with inhibitor (100 μM) at 37° C. for 6 hours prior to analysis. 1 μL injections of the sample were made onto a XEVO-G2XSQTOF#YEA928 UPLC-MS system with a Waters Acquity CM detector. Chromatographic separation was carried out on a ACQUITY UPLC® Protein BEH C4 Column over a 12 minute gradient elution of 2% to 100% acetonitrile in water (0.1% formic acid) at a flow rate of 0.500 mL/min. For the first 4 minutes the flow was diverted to the waste to avoid contamination of the MS with high concentrations of buffer components. After 4 minutes, the elution flow was ionized with an ESI ionization source and measured on a XEVO-G2XSQTOF. The results were analyzed using MassLynx V4.1. The total mass of the complex was obtained by deconvolution of electrospray ionization mass spectrum envelope (average isotopes) with the MaxEnt1 function.
Cathepsin K was incubated with ODN, 4, 5 or 6 for 6 h to allow full covalent bond formation and submitted for measurement without any digestion steps, according to the method for LC-MS for intact CatK and CatK-inhibitor complexes described in the assays section above.

“Also recorded” adds a separate entry of the source.

Sequence of hCatS (P25774 115-331): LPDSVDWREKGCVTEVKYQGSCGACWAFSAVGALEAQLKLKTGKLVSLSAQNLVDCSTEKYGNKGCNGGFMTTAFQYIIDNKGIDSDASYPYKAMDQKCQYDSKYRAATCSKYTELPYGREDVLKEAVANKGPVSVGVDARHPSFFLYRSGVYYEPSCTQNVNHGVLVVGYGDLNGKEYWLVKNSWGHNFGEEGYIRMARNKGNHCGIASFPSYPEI

With `C#CCNC(=O)[C@H](CC(C)(C)F)N[C@@H](c1ccc(-c2ccc(S(C)(=O)=O)cc2)cc1)C(F)(F)F` [Compound 4, (S)-4-fluoro-4-methyl-N-(prop-2-yn-1-yl)-2-(((S)-2,2,2-trifluoro-1-(4′-(methylsulfonyl)-[1,1′-biphenyl]-4-yl)ethyl)amino)pentanamide], in experiment [1], the “reversibility of hCatK inhibition” value is recorded as “irreversible”. In addition, the concentration for half-maximal inhibition (IC50) in experiment [2] is 9.39 ± 0.628 µM; in experiment [3], 10.7 ± 0.842 µM; in experiment [4], 0.293 ± 0.00873 µM; in experiment [5] it was more than 100 µM. Moreover, in experiment [4], the “selectivity for CatK over structurally related human Cathepsins” value is reported as “conserved”. In addition, the “formation of covalent CatK-inhibitor complex” value in experiment [6] is listed as “formation of a covalent hCatK—inhibitor complex; also recorded: covalent complex formed”. The Measured mass complex in experiment [6] is on record as 24217.
Take `CC(C)(F)C[C@H](N[C@@H](c1ccc(-c2ccc(S(C)(=O)=O)cc2)cc1)C(F)(F)F)C(=O)NC1(C#N)CC1` [ODN, (S)—N-(1-cyanocyclopropyl)-4-fluoro-4-methyl-2-(((S)-2,2,2-trifluoro-1-(4′-(methylsulfonyl)-[1,1′-biphenyl]-4-yl)ethyl)amino)pentanamide, reference compound]: the “reversibility of hCatK inhibition” value in experiment [1] is reported as “(fast) reversible inhibitor”. The IC50 was determined as 0.0626 ± 0.0025 µM in experiment [2], 0.0243 ± 0.000569 µM in experiment [3], 0.00056 ± 2e-06 µM in experiment [4] and 5.35 ± 0.596 µM in experiment [5]. The “formation of covalent CatK-inhibitor complex” value in experiment [6] is “covalent complex formed”. In addition, the Measured mass complex in experiment [6] is 24244.
`C#CC(C)NC(=O)[C@H](CC(C)(C)F)N[C@@H](c1ccc(-c2ccc(S(C)(=O)=O)cc2)cc1)C(F)(F)F` (mixture of isomers) [Compound 5, (S)—N—((R/S)-but-3-yn-2-yl)-4-fluoro-4-methyl-2-(((S)-2,2,2-trifluoro-1-(4′-(methylsulfonyl)-[1,1′-biphenyl]-4-yl)ethyl)amino)pentanamide]: the “reversibility of hCatK inhibition” value in experiment [1] was “irreversible”. Further, the IC50 in experiment [2] is 39.7 ± 4.34 µM; in experiment [3] it was 15.9 ± 1.84 µM; in experiment [4] it was 0.346 ± 0.0116 µM; in experiment [5] it was more than 100 µM. Besides, in experiment [4], the “selectivity for CatK over structurally related human Cathepsins” value is recorded as “conserved”. Further, the “formation of covalent CatK-inhibitor complex” value in experiment [6] was “formation of a covalent hCatK—inhibitor complex; also recorded: covalent complex formed”. The compound further showed a Measured mass complex in experiment [6] of 24231.
